Assay: solubility versus temperature in water (FIG. 2)
Assay type: physicochemical
Conditions: read from FIG. 2

With O=C(O)c1ccc(-c2ccc(C(=O)O)cc2)cc1 [4,4′-BPDA, 4,4′-biphenyldicarboxylic acid] the “water solubility (BPDA loading in the aqueous phase)” value (320° C.) was “ca. 10 wt %” and the “water solubility (BPDA loading in the aqueous phase)” value (340° C.) was “ca. 20 wt %”.

Source: patent US11091419B2, “Preparation and purification of biphenyldicarboxylic acids” (ExxonMobil Chemical Patents Inc., priority 2017, dated 2021)
